Format in all cases: functional
For assay [1], the target named is Neuropeptide Y receptor type 2 (Homo sapiens, UniProt P49146). The experiment in a line: NPY-Y2 antagonist potency, selectivity check, dose response, counter-screen for NPY-Y1 antagonist project, cell-based (AID 1278).
The target in assay [2] is T1, Delta-type opioid receptor (Homo sapiens, UniProt P41143). The experiment in a line: HTS Image-Based Screen for Antagonists of the DOR Receptor. [Related pubchem assays (depositor defined):AID1777, AID1785, AID1786, AID2133].
In assay [3] the target is T2, Kappa-type opioid receptor (Homo sapiens, UniProt P41145).
In assay [4] the target is Mu-type opioid receptor (Homo sapiens, UniProt P35372). The assay is described as follows: HTS Image-Based Screen for Agonists of the MOR Receptor. [Related pubchem assays (depositor defined):AID1777, AID1785, AID1786, AID2133].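 Also: imaging of beta-arrestin GFP recruitment into spots after receptor activation.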
For assay [5], the target named is T2, Kappa-type opioid receptor. This is another data set of the same source.
Assay [6] addresses T1, Delta-type opioid receptor. The experiment in a line: HTS Image-Based Screen for Agonists of the DOR Receptor. [Related pubchem assays (depositor defined):AID1777, AID1786, AID2133].
Assay [7] deals with Neuropeptide Y receptor type 1 (Homo sapiens, UniProt P25929). The experiment in a line: NPY-Y1 receptor antagonist potency, dose response, cell-based (AID 1277).
A short description of assay [8]: A High Throughput Confirmatory Assay used to Identify Novel Compounds that Inhibit Mycobacterium Tuberculosis in the absence of Glycerol.
The target of assay [9] is Insulin-degrading enzyme (Homo sapiens, UniProt P14735). The assay is described as follows: Dose Response: Fluorescence polarization-based cell-based high throughput dose response assay for inhibitors of insulin-degrading enzyme (IDE). [Related pubchem assays: 434962 (Primary screen (IDE inhibitors in singlicate)), 449730 (Counterscreen (Cytotoxicity in triplicate)), 435028 (Confirmation (IDE inhibitors in triplicate)), 434984 (Summary …. On the technique in general: Fluorescence polarisation rises when a labelled molecule tumbles more slowly, as on binding a larger partner.

Assay [10] deals with T3, Leucine aminopeptidase (Plasmodium falciparum 3D7, UniProt Q8IL11).
T3 sequence (Q8IL11 whole entry): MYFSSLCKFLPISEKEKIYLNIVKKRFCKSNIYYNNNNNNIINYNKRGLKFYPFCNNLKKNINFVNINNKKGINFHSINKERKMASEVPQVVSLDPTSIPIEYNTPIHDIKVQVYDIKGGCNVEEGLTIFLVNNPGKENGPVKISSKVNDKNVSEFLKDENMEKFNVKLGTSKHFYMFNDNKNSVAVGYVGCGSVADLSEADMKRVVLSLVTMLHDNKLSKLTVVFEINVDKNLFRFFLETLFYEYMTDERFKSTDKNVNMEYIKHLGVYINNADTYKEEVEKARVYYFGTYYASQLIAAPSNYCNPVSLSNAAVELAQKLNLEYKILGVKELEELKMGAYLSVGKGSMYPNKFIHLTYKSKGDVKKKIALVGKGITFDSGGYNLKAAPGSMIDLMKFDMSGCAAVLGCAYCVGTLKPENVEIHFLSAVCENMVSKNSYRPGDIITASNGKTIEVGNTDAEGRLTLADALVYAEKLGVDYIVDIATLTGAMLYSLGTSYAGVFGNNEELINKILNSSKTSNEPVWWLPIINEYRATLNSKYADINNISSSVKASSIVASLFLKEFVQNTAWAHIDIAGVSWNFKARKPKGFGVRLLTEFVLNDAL
The experiment in a line: P. falciparum M17LAP inhibitors, primary screen, biochemical, fluorogenic H-Leu-NHMec substrate, 1536-well (AID 1619).

Assay [11] is described as follows: Counterscreen for IDE inhibitors: Luminescence-based cell-based high throughput dose response assay to identify compounds that are cytotoxic to HEK cells. [Related pubchem assays: 434962 (Primary screen (IDE inhibitors in singlicate)), 449730 (Counterscreen (Cytotoxicity in triplicate)), 435028 (Confirmation (IDE inhibitors in triplicate)) …. The settings on record: HEK293. Background: A counterscreen serves to expose hits that act by an unwanted route or on another target.

A short description of assay [12]: A Cell Based Assay for the Identification of Probe candidate Compounds with Anti- Venezuelan Equine Encephalitis virus. [Related pubchem assays: 2409, 2419, 1621, 2238, 2405, 2024, 2065, 2402, 2414, 1635, 1650, 2244 ].
Assay [13] relates to Vero. The experiment in a line: cytotoxicity of synthesized analogs in Vero cells, SAR follow-up, cytotoxicity control for West Nile virus antiviral project, cell-based, set II (AID 2402). The settings on record: Chlorocebus sabaeus.

Here are results for four compounds from ChEMBL document CHEMBL1201862, “PubChem BioAssay data set” (2004).

Calls of active or inactive are those of the source. A value given as a limit tells only on which side of the number the result lay.

T2 sequence (P41145 whole entry): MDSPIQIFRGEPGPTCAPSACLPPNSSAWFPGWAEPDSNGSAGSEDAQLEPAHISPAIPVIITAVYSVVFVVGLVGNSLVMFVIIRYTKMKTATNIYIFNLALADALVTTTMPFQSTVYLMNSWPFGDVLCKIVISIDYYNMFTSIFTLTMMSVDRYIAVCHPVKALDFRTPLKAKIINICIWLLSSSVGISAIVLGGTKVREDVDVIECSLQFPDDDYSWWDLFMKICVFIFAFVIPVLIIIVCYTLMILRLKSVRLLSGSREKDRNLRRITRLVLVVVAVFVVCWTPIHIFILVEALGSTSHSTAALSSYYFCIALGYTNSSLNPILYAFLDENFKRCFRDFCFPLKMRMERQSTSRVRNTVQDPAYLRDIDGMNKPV
T1 sequence (P41143 whole entry): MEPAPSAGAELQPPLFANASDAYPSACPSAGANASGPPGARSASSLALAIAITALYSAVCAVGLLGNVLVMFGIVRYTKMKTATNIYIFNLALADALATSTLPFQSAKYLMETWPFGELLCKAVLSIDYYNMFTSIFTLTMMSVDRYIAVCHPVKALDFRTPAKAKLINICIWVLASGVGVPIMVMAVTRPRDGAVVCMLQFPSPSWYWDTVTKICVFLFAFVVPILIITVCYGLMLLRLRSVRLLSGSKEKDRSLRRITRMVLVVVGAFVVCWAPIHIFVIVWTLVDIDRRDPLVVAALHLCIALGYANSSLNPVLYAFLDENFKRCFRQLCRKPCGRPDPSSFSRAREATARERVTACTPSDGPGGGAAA
Sequence of Insulin-degrading enzyme (P14735 whole entry): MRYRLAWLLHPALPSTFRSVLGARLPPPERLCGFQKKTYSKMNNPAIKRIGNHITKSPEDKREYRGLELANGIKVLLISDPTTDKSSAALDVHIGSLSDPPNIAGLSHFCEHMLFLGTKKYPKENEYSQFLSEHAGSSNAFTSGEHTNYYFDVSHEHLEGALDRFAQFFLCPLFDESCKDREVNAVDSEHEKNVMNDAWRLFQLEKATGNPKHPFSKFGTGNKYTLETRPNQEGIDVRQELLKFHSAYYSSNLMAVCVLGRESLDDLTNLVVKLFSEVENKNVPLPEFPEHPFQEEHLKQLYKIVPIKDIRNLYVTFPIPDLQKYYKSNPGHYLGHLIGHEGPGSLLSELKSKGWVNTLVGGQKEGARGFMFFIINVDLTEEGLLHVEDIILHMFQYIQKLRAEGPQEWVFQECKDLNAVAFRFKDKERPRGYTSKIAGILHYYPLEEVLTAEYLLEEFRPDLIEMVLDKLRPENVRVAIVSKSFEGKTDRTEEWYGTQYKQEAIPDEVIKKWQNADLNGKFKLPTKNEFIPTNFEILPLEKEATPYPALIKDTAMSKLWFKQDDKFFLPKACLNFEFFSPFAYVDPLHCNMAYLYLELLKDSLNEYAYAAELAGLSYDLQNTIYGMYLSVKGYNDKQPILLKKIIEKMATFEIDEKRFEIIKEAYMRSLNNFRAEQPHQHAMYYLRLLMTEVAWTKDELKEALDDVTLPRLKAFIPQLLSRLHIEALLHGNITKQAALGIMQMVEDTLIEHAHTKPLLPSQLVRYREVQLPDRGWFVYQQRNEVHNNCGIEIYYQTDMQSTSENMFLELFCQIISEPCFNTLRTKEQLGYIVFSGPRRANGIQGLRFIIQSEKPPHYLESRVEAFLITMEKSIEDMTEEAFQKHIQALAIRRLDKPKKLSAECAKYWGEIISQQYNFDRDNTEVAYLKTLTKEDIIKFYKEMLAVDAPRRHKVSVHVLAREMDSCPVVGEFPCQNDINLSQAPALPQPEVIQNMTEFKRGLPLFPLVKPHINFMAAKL
Sequence of Mu-type opioid receptor (P35372 whole entry): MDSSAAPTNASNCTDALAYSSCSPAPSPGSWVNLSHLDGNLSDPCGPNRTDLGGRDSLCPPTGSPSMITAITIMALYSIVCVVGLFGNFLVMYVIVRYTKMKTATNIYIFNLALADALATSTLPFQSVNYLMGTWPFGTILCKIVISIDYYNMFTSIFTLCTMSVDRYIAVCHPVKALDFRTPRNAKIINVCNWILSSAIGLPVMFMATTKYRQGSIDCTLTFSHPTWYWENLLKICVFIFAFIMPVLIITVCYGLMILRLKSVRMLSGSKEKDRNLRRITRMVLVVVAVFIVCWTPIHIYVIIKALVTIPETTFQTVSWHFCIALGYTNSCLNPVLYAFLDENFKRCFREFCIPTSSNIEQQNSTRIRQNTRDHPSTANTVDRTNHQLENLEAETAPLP
Sequence of Neuropeptide Y receptor type 2 (P49146 whole entry): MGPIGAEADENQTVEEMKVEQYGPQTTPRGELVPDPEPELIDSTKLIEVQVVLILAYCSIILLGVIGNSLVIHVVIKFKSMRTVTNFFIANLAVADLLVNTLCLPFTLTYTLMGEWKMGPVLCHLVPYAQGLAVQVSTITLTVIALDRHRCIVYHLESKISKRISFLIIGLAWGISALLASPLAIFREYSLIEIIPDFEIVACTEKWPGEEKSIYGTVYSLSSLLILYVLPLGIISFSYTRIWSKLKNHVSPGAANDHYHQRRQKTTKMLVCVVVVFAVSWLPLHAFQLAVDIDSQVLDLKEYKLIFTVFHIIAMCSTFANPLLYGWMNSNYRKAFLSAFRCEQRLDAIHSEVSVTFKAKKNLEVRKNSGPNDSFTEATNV
Sequence of Neuropeptide Y receptor type 1 (P25929 whole entry): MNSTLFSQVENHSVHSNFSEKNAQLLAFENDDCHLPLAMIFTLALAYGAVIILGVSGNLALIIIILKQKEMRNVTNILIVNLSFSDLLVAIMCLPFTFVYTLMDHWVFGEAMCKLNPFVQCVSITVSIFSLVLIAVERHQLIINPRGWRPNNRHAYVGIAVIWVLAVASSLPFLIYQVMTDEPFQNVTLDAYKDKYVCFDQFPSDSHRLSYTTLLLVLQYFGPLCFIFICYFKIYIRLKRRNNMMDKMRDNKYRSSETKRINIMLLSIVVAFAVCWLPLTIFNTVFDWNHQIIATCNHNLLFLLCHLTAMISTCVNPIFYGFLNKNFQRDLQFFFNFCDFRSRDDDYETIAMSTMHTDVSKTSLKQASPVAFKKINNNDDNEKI

With `O=C(c1cnccn1)N(Cc1ccco1)C1(C(=O)NC2CCCCC2)CCCCC1`, the figures for the IC50 in assay [1], in assay [2] and in [7] were > 35 µM (not active), > 32 µM (inactive) and > 35 µM (not active), respectively. Further, the concentration giving a half-maximal response (EC50) (in general, the midpoint of the concentration-response curve) in [3] is 1.32 µM; in assay [4] it was > 32 µM (inactive); in [5], 2.39 µM; in assay [6] it was > 32 µM (inactive).
With `Cc1ccc(S(=O)(=O)NCc2ccc(C(=O)NCCCN3CCC(Cc4ccccc4)CC3)cc2)cc1`, the IC50 (commonly the concentration that gives 50% inhibition) in [8] is > 100 µM (active).
For the compound `O=C(O)CC12CC3CC(C1)CC(n1ncc(NCc4ccc(F)cc4Cl)c(Cl)c1=O)(C3)C2`, the IC50 in assay [9] is 18.1 µM (not active); in assay [10], 32.1 µM (active); in assay [11], > 55.7 µM (not active).
As for `COc1ccc(Cn2nc(C)cc2OC(=O)c2ccccc2)cc1`, the 50% inhibitory concentration (IC50) in assay [12] is > 133 µM (active). Further, the CC50 (usually the concentration at which the toxic effect on the cells reaches its halfway point) in assay [13] is > 200 µM (active).
